Data reported in patent US10220026B2, “Micelle containing epirubicin-complexed block copolymer and anti-cancer agent, and pharmaceutical composition containing said micelle applicable to treatment of cancer, resistant cancer or metastatic cancer” (priority 2014, dated 2019).

Legend:
[1] = Incorporation of compounds in micelles of epirubicin-conjugated block copolymer (HPLC, DLS); format: physicochemical; conditions: for detection of the compound in micelles formed by epirubicin-conjugated block copolymer: micelles produced by the method of Example 1
Protocol: The mixed solution was applied to a rotary evaporator (N-1200AV (Elyra)) followed by evaporating the methanol. After having evaporated the methanol, HEPES buffer (10 mM, pH 7.4, 50 ml) was added to the flask followed by carrying out sonication for 30 minutes (Bioruptor, Cosmo Bio Co., Ltd., Japan). Subsequently, the solution was passed through a polyethersulfone (PES) filter (0.22 μm) (Millipore Corp.). The solution was further purified by subjecting to five rounds of ultrafiltration (molecular weight cutoff: 30,000 Da) (Centricon Plus-20, Millipore Corp.) for 15 minutes (while adding 5 ml of HEPES buffer (10 mM, pH 7.4) for each round of ultrafiltration) followed by concentrating to 15 ml. Finally, the solution was passed through a PES filter (0.22 μm).

[2] = system: Epirubicin-resistant breast cancer cells (MCF-7); experiment: Elimination of epirubicin and eFluxx-ID-GFP by resistant strain (confocal microscopy), breast cancer; format: cell-based, human; conditions: epirubicin-resistant strain; concentrations of Table 6
Protocol: (§1) Epirubicin-resistant breast cancer cells (MCF-7) and cisplatin-resistant lung cancer cells (H460) were respectively disseminated in each of the wells of an 8-well Tek chambered cover glass (Thermo Fisher Scientific K.K.) at 1×10^4 cells/well followed by culturing overnight. The medium was then replaced with 200 μl of RPMI1640 (phenol red-free) containing 0.1 μg/ml of Hoechst 33342 and 10% FBS.
(§2) 200 μl of eFluxx-ID-GFP solution were added 1 hour after addition of drug. The medium was replaced with RPMI1640 medium containing 10% FBS 30 minutes after addition followed by observation with an LSM780 confocal microscope and taking photographs thereof (FIGS. 12B and 13B). Cells subjected to the procedure prior to acquiring resistance were used as a control and epirubicin was added for the drug. In this experiment, fluorescence-labeled epirubicin (manufacturer) was used for the epirubicin.

[3] = system: mouse kidney cancer-derived cells (Renca); experiment: In vivo anti-cancer activity in orthotopic kidney cancer model (survival, lung metastasis, CD105); conditions: Balb/c mice, intravenous, epirubicin equivalent 6 mg/kg, Days 4, 11, 18
[4] = system: cisplatin-resistant human lung cancer H460-luc cells; experiment: In vivo anti-cancer activity in orthotopic lung cancer model (survival); conditions: female nude mice, intravenous, epirubicin equivalent 6 mg/kg, Days 4, 11, 18, 25, 32
Protocol: Luciferase-expressing lung cancer H460-luc cells (JCRB) were cultured for 3 months in medium containing 1 μg/ml of cisplatin to acquire a cisplatin-resistant strain. 2×10^6 cells of the cisplatin-resistant strain H460-luc (containing 10% Matrigel (Becton Dickinson) were implanted into the left lower lobe of the lungs of female nude mice in accordance with the method described in Fushiki, et al., Cancer Sci., 2009 August, 100(8). Four days after implant, the drugs indicated in the following table were diluted to their prescribed dosages with physiological saline for injection (Otsuka Pharmaceutical Co., Ltd.) and administered into the caudal vein (on Days 4, 11, 18, 25 and 32).
HEPES solution was administered instead of a drug for use as a negative control. […] D-luciferin (Summit Pharmaceuticals International Corp.) was administered intraperitoneally and luminescence intensity of the luciferase was measured twice a week using an IVIS Imaging System (Summit Pharmaceuticals International Corp.) (FIG. 8A). Survival curves were verified according to the Kaplan-Meier method using Prism software and the presence of significant differences was tested using the log-rank test.

[5] = system: epirubicin-resistant human mesothelioma cells (MSTO-211H-luc); experiment: In vivo anti-cancer activity in orthotopic mesothelioma model (survival); conditions: female nude mice, intravenous, epirubicin equivalent 6 mg/kg, Days 5-63
Protocol: Human mesothelioma MSTO-211H was transfected with luciferase based on the method described in Mol. Ther., 2012 April, 20(4), 769-777 to obtain a luciferase-expressing strain (MSTO-211H-luc). MSTO-211H-luc cells were cultured for 3 months in medium containing 0.2 μg/ml of epirubicin to produce epirubicin-resistant human mesothelioma cells (MSTO-211H-luc). 1×10^6 of the epirubicin-resistant MSTO-211H-luc cells were administered into the thoracic cavity of female nude mice to produce an orthotopic implant model. Five days after administration, drugs at the dosages shown in the following table were diluted with physiological saline for injection (Otsuka Pharmaceutical Co., Ltd.) and administered into the caudal vein (on Days 5, 9, 13, 23, 33, 43, 53 and 63).
HEPES solution was administered instead of a drug for use as a negative control. […] D-luciferin (Summit Pharmaceuticals International Corp.) was administered intraperitoneally, and body weights of the mice were measured simultaneous to measuring luminescence intensity of the luciferase twice a week using an IVIS Imaging System (Summit Pharmaceuticals International Corp.) (FIGS. 6A to 6C). […] Significant differences as determined with a log-rank test were observed between the negative control and Epi (P=0.016), between Epi and Epi Micelle (P=0.0001) and between Epi Micelle and STS+Epi Micelle (P=0.0012).

[6] = system: cisplatin-resistant lung cancer cells (H460); experiment: Elimination of epirubicin and eFluxx-ID-GFP by resistant strain (confocal microscopy), lung cancer; format: cell-based, human; conditions: concentrations of Table 6
Protocol: as §1, §2

[7] = system: MSTO-211H mesothelioma cells; experiment: Aldefluor assay (FACS) on cancer stem cells in mesothelioma; format: cell-based, human; conditions: 1 μM cisplatin, 0.01 μM pemetrexed, 0.001 μM staurosporine, 0.01 μM UCN-1; 72 hours or 24 hours
[8] = system: cisplatin-resistant lung cancer cells (H460 Cis-R); experiment: eFluxx-ID Green Multidrug Resistance Assay (drug elimination activity, MAF), lung cancer; format: cell-based, human; conditions: 30 μM
Protocol: (§3) More specifically, after detaching each of the cultured cells by incubating in trypsin-EDTA solution, the cells were washed with medium to obtain cell suspensions having a concentration of 1×10^4 cells/ml. […] 125 μl of eFluxx-ID-GFP solution were added 1 hour after addition of drug at the concentration directed in the kit. Following addition, the cell suspensions were incubated for 30 minutes at 37° C. followed by the addition of DAPI at a final concentration of 0.5 μg/ml and analyzing with a flow cytometer (BD LSR II, BD Biosciences). MAF values shown in the figures refer to the multidrug resistance activity factor (MAF) calculated from the mean fluorescence intensity of flow cytometry, and a high value for MAF indicates a greater inhibitory effect on ABC transporters. The calculation formulas were as indicated below: MAFMDR-1=100×(FMDR-1−F0)/FMDR-1 MAFMRP=100×(FMRP−F0)/FMRP NAFBCRP=100×(FBCRP−F0)/FBCRP [Equation 4] (wherein, F represents the mean flow cytometry value during addition of inhibitor, and F0 represents the mean flow cytometry value when inhibitor is not added).

[9] = system: A549 cells highly expressing MRP; experiment: eFluxx-ID Green Multidrug Resistance Assay (drug elimination activity, MAF), MRP; format: cell-based; conditions: 30 μM
Protocol: as §3

[10] = system: epirubicin-resistant breast cancer cells (MCF-7 EPI-R); experiment: eFluxx-ID Green Multidrug Resistance Assay (drug elimination activity, MAF), breast cancer; format: cell-based, human; conditions: 30 μM
Protocol: as §3

[11] = system: epirubicin-resistant mesothelioma cells (MSTO-211H EPI-R); experiment: eFluxx-ID Green Multidrug Resistance Assay (drug elimination activity, MAF), mesothelioma; format: cell-based, human; conditions: 30 μM
Protocol: as §3

[12] = system: Hela cells highly expressing BCRP; experiment: eFluxx-ID Green Multidrug Resistance Assay (drug elimination activity, MAF), BCRP; format: cell-based; conditions: 30 μM
Protocol: as §3

[13] = system: Mesothelioma cell line MSTO-211H cells; experiment: Effect of micelle incorporation during addition of hAGP, Cell Counting Kit-8 cell survival; format: cell-based, human; conditions: hAGP 0.5 mg/ml; STS 0.02 μg/ml, epirubicin 0.1 μg/ml

With `C[C@]12O[C@H](C[C@]1(O)CO)n1c3ccccc3c3c4c(c5c6ccccc6n2c5c31)CNC4=O` [CEP701/lestaurtinib, lestaurtinib] the “detection of the compound in micelles formed by epirubicin-conjugated block copolymer” value (“detection of the compound” below) [1] was “able to be detected in the micelles”.

With `COc1cccc2c1C(=O)c1c(O)c3c(c(O)c1C2=O)C[C@@](O)(C(=O)CO)C[C@@H]3O[C@H]1C[C@H](N)[C@@H](O)[C@H](C)O1` [Epi, epirubicin] the “elimination of epirubicin and eFluxx-ID outside the cells” value [2] was “eliminated outside cells”, the “survival, log-rank test P versus negative control” value [3] was 0.0001 and the “survival, significant difference versus negative control (log-rank test P)” value [4] was “not observed”. For the same compound, the “survival, log-rank test P versus negative control” value [5] was 0.016 and the “elimination of epirubicin and eFluxx-ID outside the cells” value [6] was “eliminated outside cells”.

In the case of `CO[C@@H]1[C@H](N(C)C(=O)c2ccccc2)C[C@H]2O[C@]1(C)n1c3ccccc3c3c4c(c5c6ccccc6n2c5c31)C(=O)NC4` [PKC412], the “detection of the compound” value [1] is reported as “able to be detected in the micelles”.

With `CN[C@@H]1C[C@H]2O[C@@](C)([C@@H]1OC)n1c3ccccc3c3c4c(c5c6ccccc6n2c5c31)C(=O)N[C@H]4O` [UCN-01, 7-hydroxystaurosporine] the “Aldefluor-positive cells (cancer stem cells)” value (“Aldefluor-positive cells” for short) [7] was “decreased” and the “detection of the compound” value [1] was “able to be detected in the micelles”.

In the case of `N.N.[Cl][Pt][Cl]` [cisplatin], the “Aldefluor-positive cells” value [7] is reported as “increased”.

With `Cn1cc(C2=C(c3cn(C4CCN(Cc5ccccn5)CC4)c4ccccc34)C(=O)NC2=O)c2ccccc21` [enzastaurin] the “detection of the compound” value [1] was “unable to be detected in the micelles”.

In the case of `Nc1nc2[nH]cc(CCc3ccc(C(=O)N[C@@H](CCC(=O)O)C(=O)O)cc3)c2c(=O)[nH]1` [pemetrexed], the “Aldefluor-positive cells” value [7] is reported as “increased”.

For `COC(=O)[C@H]1[C@H]2C[C@@H]3c4[nH]c5cc(OC)ccc5c4CCN3C[C@H]2C[C@@H](OC(=O)c2cc(OC)c(OC)c(OC)c2)[C@@H]1OC` [reserpine], the “detection of the compound” value [1] was “able to be detected in the micelles”.

With `CN[C@@H]1C[C@H]2O[C@@](C)([C@@H]1OC)n1c3ccccc3c3c4c(c5c6ccccc6n2c5c31)C(=O)NC4` [staurosporine] the “elimination of drug (eFluxx-ID) from cells” value (“elimination of drug” below) [8] was “prevented elimination”, the “elimination of drug” value [9] was “prevented elimination” and the “Aldefluor-positive cells” value [7] was “decreased”. The “dispersibility of staurosporine-incorporating epirubicin micelle” value ([1]; epirubicin:staurosporine weight ratio of 1:1) was “dispersibility increased”, the “polydispersivity of staurosporine-incorporating epirubicin micelle” value ([1]; epirubicin:staurosporine weight ratio of 1:2, unsuitable as incorporating micelle) was “polydispersivity increased” and the “incorporation of staurosporine in the epirubicin micelle” value ([1]; epirubicin:staurosporine weight ratio of 5:1) was “complete incorporation”. The “detection of the compound” value [1] was “able to be detected in the micelles”, the “elimination of drug” value [10] was “prevented elimination” and the “elimination of drug” value [11] was “prevented elimination”. The “elimination of drug” value [12] was “prevented elimination” and the “effect of addition of human α-acid glycoprotein (hAGP) on cell survival rate” value [13] was “significant increase in cell survival rate”.

With `COc1ccc(CCN(C)CCCC(C#N)(c2ccc(OC)c(OC)c2)C(C)C)cc1OC` (stereo not drawn) [verapamil] the “elimination of epirubicin and eFluxx-ID outside the cells” value [2] was “localized within the cells” and the “elimination of epirubicin and eFluxx-ID outside the cells” value [6] was “localized within the cells”.

For `CS(=O)(=O)c1ccc(C(=O)Nc2ccc(Cl)c(-c3ccccn3)c2)c(Cl)c1` [vismodegib], the “detection of the compound” value [1] was “unable to be detected in the micelles”.
